Results as given in PubChem BioAssay (NCI).
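Briefly, cells in 96-well plates were exposed to five compound concentrations for 48 h, and endpoints were estimated by linear interpolation. At the GI50, growth is halved. At the TGI there is no net growth.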

Key:
Assay in all cases: NCI tumour cell line growth inhibition, 48 h
PC-3 prostate = system: PC-3 prostate
KM12 colon = system: KM12 colon
SF-295 CNS = system: SF-295 CNS
HT29 colon = system: HT29 colon
UACC-62 melanoma = system: UACC-62 melanoma
RXF 393 renal = system: RXF 393 renal
SNB-75 CNS = system: SNB-75 CNS
SNB-19 CNS = system: SNB-19 CNS
HCT-15 colon = system: HCT-15 colon
MCF7 breast = system: MCF7 breast
A549 NSCLC = system: A549 NSCLC
COLO 205 colon = system: COLO 205 colon
MDA-MB-231 breast = system: MDA-MB-231 breast
DU-145 prostate = system: DU-145 prostate
EKVX NSCLC = system: EKVX NSCLC
SK-MEL-5 melanoma = system: SK-MEL-5 melanoma
MDA-MB-468 breast = system: MDA-MB-468 breast
SW-620 colon = system: SW-620 colon
SK-OV-3 ovarian = system: SK-OV-3 ovarian
ACHN renal = system: ACHN renal
CAKI-1 renal = system: CAKI-1 renal
HL-60(TB) leukemia = system: HL-60(TB) leukemia
OVCAR-3 ovarian = system: OVCAR-3 ovarian
NCI-H23 lung = system: NCI-H23 lung
SN12C renal = system: SN12C renal
T-47D breast = system: T-47D breast
SR leukemia = system: SR leukemia
OVCAR-8 ovarian = system: OVCAR-8 ovarian
HOP-62 NSCLC = system: HOP-62 NSCLC
UO-31 renal = system: UO-31 renal
M14 melanoma = system: M14 melanoma
MDA-MB-435 = system: MDA-MB-435
U251 CNS = system: U251 CNS
IGROV1 ovarian = system: IGROV1 ovarian
MOLT-4 leukemia = system: MOLT-4 leukemia
SF-268 CNS = system: SF-268 CNS
MALME-3M melanoma = system: MALME-3M melanoma
CCRF-CEM leukemia = system: CCRF-CEM leukemia
NCI-H460 lung = system: NCI-H460 lung
TK-10 renal = system: TK-10 renal
SK-MEL-28 melanoma = system: SK-MEL-28 melanoma
SF-539 CNS = system: SF-539 CNS
HCT-116 colon = system: HCT-116 colon
K-562 leukemia = system: K-562 leukemia
OVCAR-4 ovarian = system: OVCAR-4 ovarian
HS 578T breast = system: HS 578T breast
NCI-H522 lung = system: NCI-H522 lung
NCI-H226 lung = system: NCI-H226 lung
A498 renal = system: A498 renal
786-0 renal = system: 786-0 renal
BT-549 breast = system: BT-549 breast
HOP-92 NSCLC = system: HOP-92 NSCLC
OVCAR-5 ovarian = system: OVCAR-5 ovarian
SK-MEL-2 melanoma = system: SK-MEL-2 melanoma
HCC-2998 colon = system: HCC-2998 colon
RPMI-8226 leukemia = system: RPMI-8226 leukemia
UACC-257 melanoma = system: UACC-257 melanoma

`O=c1nc(-c2ccccc2)cc(-c2cc3ccccc3nc2Cl)[nH]1` showed a GI50 (PC-3 prostate) of 6.11 µM, a TGI (PC-3 prostate) of 26.4 µM and a GI50 (KM12 colon) of 1.96 µM. It also gave a TGI (KM12 colon) of 4.39 µM, a GI50 (SF-295 CNS) of 10.1 µM and a TGI (SF-295 CNS) of 24.1 µM. The GI50 (HT29 colon) was 6.62 µM, the TGI (HT29 colon) was 24.8 µM and the GI50 (UACC-62 melanoma) was 7.98 µM. It also gave a TGI (UACC-62 melanoma) of 20.9 µM, a GI50 (RXF 393 renal) of 11.1 µM and a TGI (RXF 393 renal) of 25.1 µM. It also gave a GI50 (SNB-75 CNS) of 3.82 µM, a TGI (SNB-75 CNS) of 20.6 µM and a GI50 (SNB-19 CNS) of 3.92 µM. For the same compound, the TGI (SNB-19 CNS) was 15.8 µM, the GI50 (HCT-15 colon) was 2.12 µM and the TGI (HCT-15 colon) was 5.22 µM. It also gave a GI50 (MCF7 breast) of 2.53 µM, a TGI (MCF7 breast) of 14.8 µM and a GI50 (A549 NSCLC) of 11.6 µM. For the same compound, the TGI (A549 NSCLC) was 80.3 µM, the GI50 (COLO 205 colon) was 8.33 µM and the TGI (COLO 205 colon) was 25.4 µM. The GI50 (MDA-MB-231 breast) was 6.12 µM, the TGI (MDA-MB-231 breast) was 19.3 µM and the GI50 (DU-145 prostate) was 7.23 µM. It also gave a TGI (DU-145 prostate) of 20.3 µM, a GI50 (EKVX NSCLC) of 14.5 µM and a TGI (EKVX NSCLC) of 36.8 µM. For the same compound, the GI50 (SK-MEL-5 melanoma) was 17.6 µM, the TGI (SK-MEL-5 melanoma) was 33.4 µM and the GI50 (MDA-MB-468 breast) was 4.24 µM. For the same compound, the TGI (MDA-MB-468 breast) was 19.5 µM, the GI50 (SW-620 colon) was 1.93 µM and the TGI (SW-620 colon) was 3.91 µM. The GI50 (SK-OV-3 ovarian) was 21.7 µM, the TGI (SK-OV-3 ovarian) was > 100 µM and the GI50 (ACHN renal) was 5.59 µM. The TGI (ACHN renal) was 18.2 µM, the GI50 (CAKI-1 renal) was 10.1 µM and the TGI (CAKI-1 renal) was 23 µM. It also gave a GI50 (HL-60(TB) leukemia) of 2.27 µM, a TGI (HL-60(TB) leukemia) of 6.67 µM and a GI50 (OVCAR-3 ovarian) of 3.38 µM. The TGI (OVCAR-3 ovarian) was 12.8 µM, the GI50 (NCI-H23 lung) was 10.7 µM and the TGI (NCI-H23 lung) was 39.6 µM. For the same compound, the GI50 (SN12C renal) was 11.2 µM, the TGI (SN12C renal) was 23.9 µM and the GI50 (T-47D breast) was 21.4 µM. The TGI (T-47D breast) was > 100 µM, the GI50 (SR leukemia) was 0.549 µM and the TGI (SR leukemia) was 4.86 µM. It also gave a GI50 (OVCAR-8 ovarian) of 3.71 µM, a TGI (OVCAR-8 ovarian) of 18.6 µM and a GI50 (HOP-62 NSCLC) of 5.23 µM. It also gave a TGI (HOP-62 NSCLC) of 20.6 µM, a GI50 (UO-31 renal) of 3.98 µM and a TGI (UO-31 renal) of 18 µM. The GI50 (M14 melanoma) was 12 µM, the TGI (M14 melanoma) was 31.6 µM and the GI50 (MDA-MB-435) was 6.96 µM. It also gave a TGI (MDA-MB-435) of 22.3 µM, a GI50 (U251 CNS) of 1.62 µM and a TGI (U251 CNS) of 4.25 µM. The GI50 (IGROV1 ovarian) was 12.8 µM, the TGI (IGROV1 ovarian) was 27.9 µM and the GI50 (MOLT-4 leukemia) was 3.07 µM. It also gave a TGI (MOLT-4 leukemia) of 12.4 µM, a GI50 (SF-268 CNS) of 4.97 µM and a TGI (SF-268 CNS) of 18.6 µM. For the same compound, the GI50 (MALME-3M melanoma) was 12.4 µM, the TGI (MALME-3M melanoma) was 26.4 µM and the GI50 (CCRF-CEM leukemia) was 2.75 µM. For the same compound, the TGI (CCRF-CEM leukemia) was 9.32 µM, the GI50 (NCI-H460 lung) was 3 µM and the TGI (NCI-H460 lung) was 10.3 µM. The GI50 (TK-10 renal) was 16.4 µM, the TGI (TK-10 renal) was 41.5 µM and the GI50 (SK-MEL-28 melanoma) was 11.1 µM. The TGI (SK-MEL-28 melanoma) was 23.3 µM, the GI50 (SF-539 CNS) was 2.05 µM and the TGI (SF-539 CNS) was 5.1 µM. The GI50 (HCT-116 colon) was 1.89 µM, the TGI (HCT-116 colon) was 3.9 µM and the GI50 (K-562 leukemia) was 2.71 µM. It also gave a TGI (K-562 leukemia) of 9.19 µM, a GI50 (OVCAR-4 ovarian) of 17.8 µM and a TGI (OVCAR-4 ovarian) of 61.4 µM. The GI50 (HS 578T breast) was 12.3 µM, the TGI (HS 578T breast) was 60.2 µM and the GI50 (NCI-H522 lung) was 8.4 µM. The TGI (NCI-H522 lung) was 22.3 µM, the GI50 (NCI-H226 lung) was 11.2 µM and the TGI (NCI-H226 lung) was 28.1 µM. It also gave a GI50 (A498 renal) of 21.2 µM, a TGI (A498 renal) of 43.5 µM and a GI50 (786-0 renal) of 3.39 µM. It also gave a TGI (786-0 renal) of 13.3 µM, a GI50 (BT-549 breast) of 2.61 µM and a TGI (BT-549 breast) of 13.3 µM. For the same compound, the GI50 (HOP-92 NSCLC) was 4.21 µM, the TGI (HOP-92 NSCLC) was 22.4 µM and the GI50 (OVCAR-5 ovarian) was 12.2 µM. It also gave a TGI (OVCAR-5 ovarian) of 25.3 µM, a GI50 (SK-MEL-2 melanoma) of 17.1 µM and a TGI (SK-MEL-2 melanoma) of 34 µM. It also gave a GI50 (HCC-2998 colon) of 16.9 µM, a TGI (HCC-2998 colon) of 33.7 µM and a GI50 (RPMI-8226 leukemia) of 2.2 µM. The TGI (RPMI-8226 leukemia) was 7.19 µM, the GI50 (UACC-257 melanoma) was 17 µM and the TGI (UACC-257 melanoma) was 36.9 µM.
